Assay results as given in patent US20250179126A1, “A NOVEL PEPTIDE FROM A PHOTOSYNTHETIC BACERIUM DIRECTLY TARGETS MITOCHONDRIA TO TRIGGER APOPTOSIS IN ADVANCED PROSTATE CANCER CELLS” (priority 2022, published 2025).

Tests used:
PC3 cells = assay: Annexin-V apoptosis assay by flow cytometry, PC3; type: cell-based, human; conditions: PC3, 48 hr; Ptxl 1 nM, p28 50 μM, aurA/aurB 0.5-50 μM
Description: (§1) FIG. 7A-7D: Determination of apoptotic cell death. Prostate cancer cell lines (7A: LNCaP, 7B: DU145 and 7C: PC3) and normal prostate CRL11611 cells (7D) were exposed to the indicated agents for 48 hr and stained using apoptosis assay kits according to the manufacturer's instructions. The samples were analyzed by flow cytometry. Mean±SE (N=3).
(§2) After 48 hr, annexin-V apoptosis assays (Thermo Fisher Scientific) were conducted to detect apoptotic cells. At least 10,000 cells in each case were analyzed by FACS (RRC, UIC).

DU145 cells = assay: Annexin-V apoptosis assay by flow cytometry, DU145; type: cell-based, human; conditions: DU145, 48 hr; Ptxl 1 nM, p28 50 μM, aurA/aurB 0.5-50 μM
Description: as §1, §2

[1] = test system: normal prostate CRL11611 cells; assay: Annexin-V apoptosis assay by flow cytometry, normal prostate CRL11611; type: cell-based, human; conditions: normal CRL11611, 48 hr; Ptxl 1 nM, p28 50 μM, aurA/aurB 0.5-50 μM
Description: as §1, §2

LNCaP cells = assay: Annexin-V apoptosis assay by flow cytometry, LNCaP; type: cell-based, human; conditions: 48 hr, Ptxl 1 nM, p28 50 μM, aurA/aurB 0.5-50 μM
Description: as §1, §2

[2] = test system: LNCaP prostate cancer cells; assay: MTT cell viability assay, LNCaP prostate cancer cells; type: cell-based, human; conditions: LNCaP (p53 wild-type, AR+), 24-72 hr; paclitaxel 1 nM
Description: (§3) Cell lines and culture: Human cancer and noncancer (immortalized and nonimmortalized) cell lines were obtained from the American Type Culture Collection [prostate cancer (PC3, DU145 and LNCaP), normal prostate (CRL11611), breast cancer (MCF-7), ovarian cancer (SK-OV3 adenocarcinoma), lung cancer (A549)]. MDD2 breast cancer cells (p53 dominant-negative) were provided courtesy of Dr Andrei V. Gudkov, Roswell Park Cancer Institute. 20 All cell lines were cultured in MEM-E (Invitrogen) supplemented with 10% heat-inactivated fetal bovine serum (Atlanta Biological, Inc.), 100 units/mL penicillin, and 100 μg/mL streptomycin at 37° C. in 5% CO2.

PC3 xenograft tumors = assay: PC3 xenograft animal model; type: in vivo, athymic mice; conditions: end of treatment, four weeks i.p.; aurB 5 mg/kg daily, Ptxl 10 mg/kg once a week
Text: FIG. 10A-10D: Inhibition of PC3 xenograft tumor growth. 10A, When the s.c. tumors reached ˜5 mm, athymic mice were randomized into control (PBS) and i.p. treatment groups. Mean±SE (N=5). *P<0.01. […] 10C, At the end of treatment, tumors were dissected and weighed. * P<0.01. 10D, In sections of tumors from the control group, there was a marked increase in Ki-67-positive proliferating cells (stained brown and counterstained with haematoxylin, ×40), and only a few apoptotic cells were observed, as determined by TUNEL and caspase-3 (Casp-3) staining. There was an apparent sharp reduction in Ki-67-positive proliferating cells and a higher number of TUNEL-positive apoptotic cells in the aurB-treated group compared to the control group. Similarly, Casp-3 expression in aurB-treated tumors was increased markedly compared with that in untreated controls.
Xenograft animal model: Human prostate cancer cells (PC3) were injected s.c. into the right flanks of 5- to 6-week-old male athymic mice 78. When tumors reached 5 mm in diameter, animals were randomized into control and treatment groups. […] All animals were weighed twice a week. At necropsy, tumors were dissected and weighed. Statistical comparisons were performed by one-way analysis of variance (ANOVA) (control vs treatment). Tumor samples were fixed overnight in 10% buffered formalin. Fixation was followed by dehydration, clearing and infiltration. Samples were then embedded in paraffin, and 4 μm sections were cut on a microtome. Ki67 (LabVision) staining was performed on the tissue sections using a Vector Vectastain Elite ABC Kit. The TUNEL assay was performed on the sections using a Millipore Sigma ApopTag® Peroxidase In Situ Apoptosis Detection Kit.

[3] = test system: normal prostate cells CRL11611; assay: MTT cell viability assay, normal prostate CRL11611 cells; type: cell-based, human; conditions: normal prostate CRL11611 (p53+, AR+), 24-72 hr, paclitaxel 1 nM
Text: FIG. 4A-4D: Effect of peptides on prostate cancer cell lines with differences in p53 and AR expression status. […] Control (PBS)-treated cells were considered to have 100% viability. Mean±SE (N=3).
as §3
Cytotoxicity assay: The MTT assay was performed as we previously described (Cha et al., Cancer Research 2020, 80: 1615-1623).

[4] = test system: PC3 prostate cancer cells; assay: MTT cell viability assay, PC3 prostate cancer cells; type: cell-based, human; conditions: PC3 (p53-null, AR−), 24-72 hr, paclitaxel 1 nM
Description: as §3

[5] = test system: DU145 prostate cancer cells; assay: MTT cell viability assay, DU145 prostate cancer cells; type: cell-based, human; conditions: DU145 (p53-mutant, AR−), 24-72 hr, paclitaxel 1 nM
Text: Cell viability was detected by MTT assays, and the control (PBS-treated) cells were considered 100% viable. Mean±SE (N=3). *P<0.05, **P<0.01, ***P<0.001.
as §3

CC(=O)O[C@H]1C(=O)[C@@]2(C)[C@H]([C@H](OC(=O)c3ccccc3)[C@]3(O)C[C@H](OC(=O)[C@H](O)[C@@H](NC(=O)c4ccccc4)c4ccccc4)C(C)=C1C3(C)C)[C@]1(OC(C)=O)CO[C@@H]1C[C@@H]2O [paclitaxel, reference compound]
apoptotic cell death (PC3 cells): induced apoptotic cell death | apoptotic cell death (DU145 cells): induced apoptotic cell death | apoptotic cell death [1]: induced apoptotic cell death | apoptotic cell death (LNCaP cells): induced apoptotic cell death | cytotoxic effect (MTT cell viability) [2]: significantly induced time-dependent cytotoxicity | tumor growth inhibition vs PBS control (PC3 xenograft tumors): 52% | cytotoxic effect (MTT cell viability) [3]: significantly induced time-dependent cytotoxicity | cytotoxic effect (MTT cell viability) ([3]; listed as Ptxl): most toxic | cytotoxic effect (MTT cell viability) [4]: significantly induced time-dependent cytotoxicity | cytotoxic effect (MTT cell viability) ([4]; listed as Ptxl): less susceptible | cytotoxic effect (MTT cell viability) [5]: significantly induced time-dependent cytotoxicity | cytotoxic effect (MTT cell viability) ([5]; listed as Ptxl): less susceptible
